# Experimental data reported in patent EP1714676A2, “Use of N-substituted-1,5-dideoxy-1,5-imino-D-glucitol compounds for treating hepatitis virus infections” (G.D. Searle LLC., priority 1999, dated 1999).
# How the values were obtained:
# [1] = system: Hepatitis B Virus; test: HBV secretion by chronically HBV secreting HepG2.2.15 cells (preS1 immunoprecipitation of secreted virions, PCR of viral DNA); format: cell-based; settings: 3 days, control = 100%
# Procedure: The anti-hepatitis B virus activity and effect on cell viability of a number of different N-substituted-1,5-dideoxy-1,5-imino-D-glucitol compounds were assessed using an in vitro assay employing chronically hepatitis B virus secreting HepG2.2.15 cells. The method employed was essentially that described in Block et al. (1994) Proc. Natl. Acad. Sci. USA 91:2235-2239.
# [2] = system: HepG2.2.15 cells; format: cell-based
# [3] = system: woodchuck hepatitis virus (WHV); test: Woodchuck model: total HBV DNA by quantitative PCR; format: in vivo; settings: 0, 12.5, 25, 50, 100 mg/kg/day BID oral, 4 weeks
# Procedure: (§1) Therefore, five groups of four animals each (all groups had both sexes, all but the control had two of each sex) were assigned to 0, 12.5, 25, 50, and 100 mg/kg/day with BID oral dosing. These were lab-reared wild animals. All animals were infected with woodchuck hepatitis virus (WHV) as neonates, and had been tested positive on serological tests for WHV surface antigen. Blood samples were drawn one week prior to dosing (-1 week), immediately before dosing (0 weeks), weekly during dosing (1, 2, 3, and 4 weeks), and after the end of dosing (5, 6, 8, and 10 weeks).
# (§2) There are two measures of drug efficacy: reduction in total HBV DNA (measured by quantitative PCR), and reduction in HBV DNA from capsids with intact surface glycoproteins, which is the active form of the virus (measured by an ELISA-like immune precipitation assay followed by quantitative PCR).
# The total HBV DNA levels were essentially constant over time within each animal (data not shown). There was a faint hint of a dose-response relationship with decreasing levels of virus with increasing levels of drug, except that three animals at the highest dose had very high virus levels. It is not possible to conclude that there is any relationship between dose of N-nonyl-DNJ and total HBV DNA. […]
# [4] = system: woodchuck hepatitis virus (WHV); test: Woodchuck model: immune precipitated HBV DNA (IPDNA), immune precipitation followed by quantitative PCR; format: in vivo
# Procedure: as §1, §2
# Substantial variation existed in the IPDNA assay, both between assay runs and within assay runs (data not shown). Even so, it was possible to observe and model a slope over weeks 0-4 which is generally increasing for low dose animals and decreasing for high dose animals.
# Before models are fitted to the data, a log transform was applied because: 1) the variation in IPDNA increases with increasing IPDNA values; the log transformation gives values with a nearly constant variation, and 2) it is expected that drug effects will appear as a constant multiplier of the IPDNA level. Because there are zero values of IPDNA, a small value (about 1/2 of the smallest non-zero value) was added to all values before the log transform.
# Two approaches were used to model the changes in slope to week with dose of N-nonyl-DNJ: a linear modeling approach and a nonlinear model. Both approaches assume that the (linear) rate of change of the Log(IPDNA) measure over the dosing period is the "right" measure to reflect the effect of the drug on the virus. Both approaches are fit in stages, and the first stage is common to both approaches. First, a simple straight line regression model is fit using weeks 0-4 to predict log(IPDNA + 10) separately for each animal by run combination. In the second stage, the response variable is the slope fitted in the first stage.
# For the linear approach, a model is fit with slope to week as the response where run is considered a block, dose has a significant effect (almost all of this effect is due to a slope to dose), and the relevant error for testing the effect of dose is the variation among animals treated alike (after the adjustment for the runs as blocks). This is similar to using the calibration data within each run to first adjust each run's data to a common virus DNA concentration; the difference is that here the data from the woodchucks are used for the run adjustment rather than only the calibration data.
# For the nonlinear approach, a four parameter logistic model is fit with the slope to week as the response and the dose as the predictor. Again, run is considered a block, but because no run has all weeks, it is not possible to fully reflect the blocking in the nonlinear approach. […] The average maximum slope observed was 2.71 additional Log(IPDNA µg/mL)/week, or an increase of about […], the average minimum slope observed with N-nonyl-DNJ is 0.31 fewer Log (IPDNA µg/mL)/week), or about a decrease of about […]. The slopes, the fitted model, the parameter estimates from the model, and the approximate standard errors for these parameters are all shown in Figure 3. […] Whether in woodchucks or humans, the effective dose of both the N-alkyl-DNJ and nucleoside or nucleotide antiviral agent administered in combination therewith can be administered in two equal daily subdoses (i.e., B.I.D.).
# [5] = system: HepG 2.2.15 (2.2.15) cells; test: IC-90 values taken as basis for the combostat serial dilutions; format: cell-based; settings: Hepatitis B virus, HepG2.2.15; T. Block and G. Jacob, unpublished observation
# Procedure: The anti-hepatitis B virus effect of […] (3TC) alone and in combination with N-nonyl-DNJ was determined according to Korba ((1996) Antiviral Research 29(1):49-51), using the "combostat" strategy (Comstat Program, Combostat Corp., Duluth, MN). The combostat method involves serially diluting the IC-90 of each compound. The IC-90 of N-nonyl-DNJ has been determined to be between 4 and 10 µg/ml (T. Block and G. Jacob, unpublished observation). The accepted IC-90 for 3TC in HepG 2.2.15 (2.2.15) cells is 300nM to 500nM (Doong et al. (1991) Proc. Natl. Acad. Sci. USA 88:8495-8499).
# [6] = concentration [200] (unit not given)
# [7] = concentration [1000] (unit not given)
SMILES,"Relative amount of HBV secreted, as a % of control [1, 6]","Relative amount of HBV secreted, as a % of control [1, 7]",appearance of cells by gross microscopic examination [2],effect on total HBV DNA measurements [3],"EC50 ([4]; four parameter logistic model, slope of Log(IPDNA + 10) to week vs dose)",average maximum slope observed ([4]; weeks 0-4 of dosing),average minimum slope observed ([4]; weeks 0-4 of dosing),decrease of IPDNA at average minimum slope ([4]; weeks 0-4 of dosing),increase of IPDNA at average maximum slope ([4]; weeks 0-4 of dosing),"approximate effective monotherapy dose ([4]; woodchucks, oral)",IC90 [5]
"CCC(CC)CN1C[C@H](O)[C@@H](O)[C@H](O)[C@H]1CO [Compound 3, N-(2-ethylbutyl)-1,5-dideoxy-1,5-imino-D-glucitol]",5.0 +/-30 (n = 3) %,5.0 +/-20(n = 3) %,unremarkable (healthy),,,,,,,,
"CCCCCCCCCN1C[C@H](O)[C@@H](O)[C@H](O)[C@H]1CO [Compound 1, N-(n-nonyl)-1,5-dideoxy-1,5-imino-D-glucitol]",,,,no effect,7.88 mg/kg/BID dose,2.71 additional Log(IPDNA µg/mL)/week,0.31 fewer Log (IPDNA µg/mL)/week,about 25 %/week,about 150 %/week,about 16 mg/kg/day,4 to 10 µg/mL
"CCCCN1C[C@H](O)[C@@H](O)[C@H](O)[C@H]1CO [NBDNJ, N-(n-butyl-)-1,5-dideoxy-1,5-imino-D-glucitol, reference compound]",37.0 +/-13(n = 15) %,3.2 +/-5(n = 15) %,,,,,,,,,
